One assay has as its target T1, PLA2G16 (Homo sapiens, UniProt P53816).
T1 construct: Hexa-His (N); made in house; host or cells: E. coli BL21(DE3)
T1 sequence (P53816 1-162): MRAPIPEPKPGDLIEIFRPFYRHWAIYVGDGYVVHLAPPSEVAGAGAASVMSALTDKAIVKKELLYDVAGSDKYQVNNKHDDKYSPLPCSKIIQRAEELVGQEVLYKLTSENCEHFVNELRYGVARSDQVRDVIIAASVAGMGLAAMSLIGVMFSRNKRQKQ
The assay can be described thus: Enzyme activity assay for PLA2G16 (Red/Green BODIPY PC-A2 fluorescence). To be noted: His-tagged PLA2G16, 4 min pre-incubation, compound 2 nM to 50 μM; first symbol in parentheses. Type of assay: biochemical. The text has this:
Purification and Enzyme Activity Assay for PLA2G16
A cDNA for PLA2G16 (NM_007069) was custom-synthesized by Genscript (Piscataway, USA) and inserted into a pET-based bacterial expression vector [Moffatt, B. A. and Studier, F. W. (1986) J. Mol. Biol. 189, 113-130; Rosenberg, A. H., Lade, B. N., Chui, D., Lin, S., Dunn, J. J., and Studier, F. W. (1987) Gene 56, 125-135], enabling the expression of N-terminally Hexa-His-tagged PLA2G16. E. coli BL21(DE3) (Agilent) were transformed with pET-His-PLA2G16 according to the manufacturer's instructions and plated on Carbenicillin-containing agar plates (final concentration: 100 μg/mL). A single clone was inoculated in 100 mL LB medium supplemented with 100 μg/mL Carbenicillin and the inoculated culture was grown at 37° C. overnight in a rotary shaker. On the next day, the bacterial culture was diluted in LB medium supplemented with 100 μg/mL Carbenicillin (30 mL overnight culture in 800 mL total culture volume). Bacteria were grown at 37° C. until the OD600 reached 0.6. Gene expression was induced by addition of 1 mM isopropyl-β-D-thiogalactopyranosid (IPTG) for 2 h at 18° C. Subsequently, bacteria were harvested by centrifugation (15 min; 10,000×g; 4° C.) and frozen at −80° C. The bacterial pellet was resuspended in Buffer A (50 mM Tris/HCl pH 7.5, 500 mM NaCl, 5% glycerol, 5 mM β-Mercaptoethanol and 1 mM PMSF) and lysed by addition of 1 mg/mL lysozyme (Sigma Aldrich) and 100 μg/mL DNasel-(Roche). The sample was incubated at 30° C. for 30 min to allow lysis to occur. Then, the lysate was cleared by centrifugation (15,000×g, 15 min, 4° C.) and incubated with 1.5 mL Ni-NTA agarose suspension (Qiagen) for 60 min at 4° C. The Ni-NTA agarose was washed with 10 mL Buffer A. Bound protein was eluted by applying a manual gradient of Buffer A supplemented with increasing concentrations of imidazole (Sigma Aldrich; 25/50/75/100/250 mM). Purified fractions were analyzed by SDS-PAGE followed by Coomassie staining to assess the purity.
Activity of the protein was assessed as follows:
Red/Green BODIPY® PC-A2 (Invitrogen, 1 mM in DMSO) was mixed with equal volumes of 1,2-Dioleoyl-sn-glycero-3-phosphocholine (DOPC; Sigma Aldrich, 10 mM in Ethanol) and 1,2-Dioleoyl-sn-glycero-3-phospho-rac-(1-glycerol) (DOPG; Sigma Aldrich, 10 mM in Ethanol) and 0.5 volumes of Cholesterol (CHOL; Sigma Aldrich, 10 mM in Ethanol) and vortexed for 5 s. The mixture (Red/Green BODIPY® PC-A2/DOPC/DOPG/CHOL) was diluted 1:91.4 in activity assay buffer (50 mM Tris/HCl pH 8.5, 100 mM NaCl) using a small-orifice pipette tip under constant vortexing. In the following, this preparation will be referred to as the “substrate solution”.
In order to evaluate their inhibitory potential, compounds were dissolved at 10 mM concentration in DMSO and directly spotted into assay plates (Corning, Cat. No. 3576) using acoustic liquid transfer (Labcyte Echo 525). Each compound was spotted at increasing concentrations, ranging from 2 nM to 50 μM (concentration in the final assay volume). 50 μl of PLA2G16 enzyme solution (diluted in activity buffer, supplemented with 5 mM L-Glutathione; Sigma Aldrich) was pre-incubated with compounds for 4 min., followed by addition of 50 μl of substrate solution. Fluorescence was recorded immediately after substrate addition for a total time of 10 min. using a SpectraMax M5 multimode reader (Excitation wavelength: 480 nm, emission wavelength: 530 nm). The relative increase of fluorescence over time is referred to as the enzyme activity. Half-maximal inhibitory concentrations (IC50) were derived by non-linear regression analysis using the drc package in R (R Development. Core Team, 2005).

Assay [1] concerns picornaviruses (CVB1, HRV-A2, HRV-A23, EV-68). The assay is described as follows: Anti-picornavirus cytopathic effect (CPE) reduction assay on HeLa H1 cells. Type of assay: cell-based. The following applies: 48 h, category from averaging EC50 values of four picornaviruses (CVB1, HRV-A2, HRV-A23, EV68), second symbol in parentheses. On the procedure:
Anti-Picornavirus Assay in Mammalian Cell Culture
The antiviral activity of selected compounds was tested using a cytopathic effect (CPE) reduction assay on HeLa H1 cells (ATCC CRL-1958). Briefly, cells were seeded in 96-well dishes (2×10^4 cells/well) in DMEM medium (Life technologies) supplemented with 10% FBS and PenStrep solution (100 U/mL Penicillin and 100 μg/mL streptomycin) and incubated at 37° C., 5% CO2 overnight. The next day, cells were pre-treated with serial dilutions of the compound in DMEM medium supplemented with 2% FBS and PenStrep for 2 h at 37° C., 5% CO2. Next, cells were infected with virus (CVB1, HRV-A2, HRV-A23, EV-68) at an multiplicity of infection (MOI) which results in a complete virus-induced CPE within 2 days in control wells (infected and vehicle-treated). After 48 h, supernatants were aspirated and 50 μl/well of CellTiterBlue reagent (Promega) diluted 1:5 in DMEM+2% FBS, was added to the cells. Plates were returned to the incubator and allowed to develop for 1.5 h. After that, plates were equilibrated to RT and subsequently, fluorescence was recorded (Excitation wavelength: 560 nm; emission wavelength: 590 nm) using a SpectraMax M5 multimode plate reader. Viability of cells was calculated according to the formula: V=(RFUCpd−RFUVeh/(RFUM−RFUVeh), where RFUCpd refers to infected and compound-treated cells, RFUVeh to infected and vehicle-treated cells and RFUM to uninfected and vehicle treated cells. Half-maximal effective concentrations (EC50) were calculated by non-linear regression analysis using the drc package in R (R Development. Core Team, 2005). EC50 categories as presented in Table 2 were calculated by averaging the EC50 values from four picornaviruses (CVB1, HRV-A2, HRV-A23, EV68).

Regarding `COc1ccc(CN2C[C@H](C(=O)C(=O)NC3CC3)[C@@H](c3ccccc3)C2=O)cc1` (racemic) [FP-102, Rac-N-cyclopropyl-2-[(3R,4S)-1-[(4-methoxyphenyl)methyl]-5-oxo-4-phenylpyrrolidin-3-yl]-2-oxoacetamide], the IC50 at PLA2G16 is under 1 µM. Moreover, in assay [1], the EC50 is under 1 µM.

Consider `CCNC(=O)C(=O)[C@H]1CN(CC2CCOCC2)C(=O)[C@@H]1Cc1ccccc1` (racemic) [FP-33, Rac-2-[(3R,4R)-4-benzyl-1-[(oxan-4-yl)methyl]-5-oxopyrrolidin-3-yl]-N-ethyl-2-oxoacetamide], for which the IC50 on PLA2G16 is under 1 µM. For the same compound, the EC50 in assay [1] is under 1 µM.

Turning to `O=C(NC1CCC1)C(=O)[C@H]1CNC(=O)[C@@H]1c1ccccc1` (racemic) [FP-19, Rac-N-cyclobutyl-2-oxo-2-[(3R,4S)-5-oxo-4-phenylpyrrolidin-3-yl]acetamide], the IC50 at PLA2G16 is under 1 µM. The EC50 in assay [1] is under 1 µM.

`CCNC(=O)C(=O)[C@H]1CN(CC(F)F)C(=O)[C@@H]1Cc1ccccc1` (racemic) [FP-50, Rac-2-[(3R,4R)-4-benzyl-1-(2,2-difluoroethyl)-5-oxopyrrolidin-3-yl]-N-ethyl-2-oxoacetamide]: the IC50 on PLA2G16 was under 1 µM. In addition, in assay [1], the EC50 is under 1 µM.

With `O=C(NC1CC(F)(F)C1)C(=O)[C@H]1CNC(=O)[C@@H]1c1ccccc1` (racemic) [FP-16, Rac-N-(3,3-difluorocyclobutyl)-2-oxo-2-[(3R,4S)-5-oxo-4-phenylpyrrolidin-3-yl]acetamide], on PLA2G16, the IC50 was under 1 µM. For the same compound, in assay [1], the EC50 was in the range of 1 to 10 µM.

As for `O=C(NC1CC1)C(=O)[C@H]1CN(c2cncnc2)C(=O)[C@@H]1Cc1ccccc1` (single isomer, unassigned) [FP-89], on PLA2G16, the IC50 was under 1 µM. Further, the EC50 in assay [1] was under 1 µM.

Take `CC(C)CNC(=O)C(=O)[C@H]1CNC(=O)[C@@H]1Cc1ccccn1` (racemic) [FP-80, Rac-N-(2-methylpropyl)-2-oxo-2-[(3R,4R)-5-oxo-4-[(pyridin-2-yl)methyl]pyrrolidin-3-yl]acetamide]: the IC50 at PLA2G16 is under 1 µM. Moreover, the EC50 in assay [1] is under 1 µM.

Take `CC(C)CNC(=O)C(=O)[C@H]1CN(CC(N)=O)C(=O)[C@@H]1Cc1ccccc1` (racemic) [FP-40, Rac-2-[(3R,4R)-4-benzyl-1-(carbamoylmethyl)-5-oxopyrrolidin-3-yl]-N-(2-methylpropyl)-2-oxoacetamide]: the IC50 at PLA2G16 is under 1 µM. In addition, the EC50 in assay [1] was under 1 µM.

On to `Cc1cc(CN2C[C@H](C(=O)C(=O)NC3CC3)[C@@H](Cc3ccccc3)C2=O)no1` (racemic) [FP-41, Rac-2-[(3R,4R)-4-benzyl-1-[(5-methyl-1,2-oxazol-3-yl)methyl]-5-oxopyrrolidin-3-yl]-N-cyclopropyl-2-oxoacetamide], for which the IC50 on PLA2G16 is under 1 µM. In addition, the EC50 in assay [1] is under 1 µM.

For the compound `CC(C)ONC(=O)C(=O)[C@H]1CNC(=O)[C@@H]1Cc1ccccc1` (racemic) [FP-8, Rac-2-[(3R,4R)-4-benzyl-5-oxopyrrolidin-3-yl]-2-oxo-N-(propan-2-yloxy)acetamide], on PLA2G16, the IC50 is under 1 µM. In assay [1], the EC50 was 1 to 10 µM.

For the compound `O=C(NC1CC1)C(=O)[C@H]1CN(c2cc(Cl)cc(=O)[nH]2)C(=O)[C@@H]1Cc1ccccc1` (racemic) [FP-71, Rac-2-[(3R,4R)-4-benzyl-1-(4-chloro-6-oxo-1,6-dihydropyridin-2-yl)-5-oxopyrrolidin-3-yl]-N-cyclopropyl-2-oxoacetamide], on PLA2G16, the IC50 was under 1 µM. In addition, the EC50 in assay [1] is under 1 µM.

Regarding `CC(F)(F)CNC(=O)C(=O)[C@H]1CNC(=O)[C@@H]1c1ccccc1` (single isomer, unassigned) [FP-88], the IC50 on PLA2G16 was under 1 µM. In addition, the EC50 in assay [1] is under 1 µM.

Consider `O=C(NC1CC1)C(=O)[C@H]1CN(c2ccncn2)C(=O)[C@@H]1Cc1ccccc1` (racemic) [FP-61, Rac-2-[(3R,4R)-4-benzyl-5-oxo-1-(pyrimidin-4-yl)pyrrolidin-3-yl]-N-cyclopropyl-2-oxoacetamide], for which the IC50 on PLA2G16 was under 1 µM. Moreover, the EC50 in assay [1] is 1 to 10 µM.

`CC(F)(F)CNC(=O)C(=O)[C@@H]1CNC(=O)[C@H]1c1ccccc1` (single isomer, unassigned) [FP-87]: the IC50 on PLA2G16 lay within 1 to 10 µM. For the same compound, the EC50 in assay [1] is over 10 µM.

For the compound `O=C(NCC1CC1)C(=O)[C@@H]1CNC(=O)[C@H]1c1ccccc1` (single isomer, unassigned) [FP-85], on PLA2G16, the IC50 was under 1 µM. Further, the EC50 in assay [1] was over 10 µM.

In the case of `O=C(NCC1CCC1)C(=O)[C@H]1CNC(=O)[C@@H]1c1ccccc1` (racemic) [FP-21, Rac-N-(cyclobutylmethyl)-2-oxo-2-[(3R,4S)-5-oxo-4-phenylpyrrolidin-3-yl]acetamide], the IC50 on PLA2G16 is under 1 µM. The EC50 in assay [1] is under 1 µM.

For `Cn1ncnc1CN1C[C@H](C(=O)C(=O)NCC(C)(F)F)[C@@H](Cc2ccc(F)cc2)C1=O` (racemic) [FP-53, Rac-N-(2,2-difluoropropyl)-2-[(3R,4R)-4-[(4-fluorophenyl)methyl]-1-[(1-methyl-1H-1,2,4-triazol-5-yl)methyl]-5-oxopyrrolidin-3-yl]-2-oxoacetamide], the IC50 on PLA2G16 is under 1 µM. Besides, in assay [1], the EC50 lay in the range of 1 to 10 µM.

For `O=C(NCCC1CC1)C(=O)[C@H]1CNC(=O)[C@@H]1c1ccccc1` (racemic) [FP-24, Rac-N-(2-cyclopropylethyl)-2-oxo-2-[(3R,4S)-5-oxo-4-phenylpyrrolidin-3-yl]acetamide], the concentration for half-maximal inhibition (IC50) on PLA2G16 is under 1 µM. Further, the EC50 in assay [1] is under 1 µM.

With `O=C(NCC1CC1)C(=O)[C@H]1CNC(=O)[C@@H]1Cc1ccccc1` (racemic) [FP-1, Rac-2-[(3R,4R)-4-benzyl-5-oxopyrrolidin-3-yl]-N-(cyclopropylmethyl)-2-oxoacetamide], at PLA2G16, the IC50 is under 1 µM. For the same compound, the EC50 in assay [1] was under 1 µM.
